Test results from US9458194B2, “Compounds useful in the treatment and/or care of the skin and their cosmetic or pharmaceutical compositions” (Lubrizol Advanced Materials, Inc., priority 2013, dated 2016).

Test system: type-I collagen
Assay: Type-I collagen synthesis in human dermal fibroblasts (ELISA)
Format: cell-based
Conditions: 0.01 μg/ml, 48 hours, vs negative control
Description: Stimulation of type-I collagen synthesis induced by cosmetic active ingredients was assessed by means of an ELISA (Enzyme-Linked Immunosorbent Assay) method.
Human dermal fibroblasts were trypsinized and seeded at a density of 5×10^4 cells/well in 48-well plates. After 24 hours of incubation at 37° C., 5% CO2, with a humidified atmosphere, a new medium was added with 0.01 μg/mL Ac-L-Asp-L-Val-L-Lys-L-Tyr-OH. Untreated cells were used as negative controls. The cells were incubated for an additional 48 hours at 37° C., 5% CO2, with humidified atmosphere. Subsequently, the medium was collected from each well to be analyzed by ELISA. A calibration curve with type-I collagen was prepared (Sigma) and the dilutions of this calibration curve were transferred to 96-well plates together with the mediums collected from the cells. The plates were left at 4° C. in a humid atmosphere for one night. Next the wells were washed three times with a washing solution prepared with PBS at 0.05% of Tween-20 (Sigma) and then any non-specific binding of the primary antibody with a solution of PBS at 3% BSA (sigma) was blocked. […] The reaction was stopped adding a solution of H2SO4 3 M and the absorbency reading was carried out at a wave length of 490 nm in a TECAN GENios spectrophotometric reader. […]

Substance: Ac-L-Asp-L-Val-L-Lys-L-Tyr-OH (Ac-DVKY-OH)
- INCREASE IN SYNTHESIS OF TYPE-I COLLAGEN: 47.3%
